Data on three compounds can be found in US20250213574A1, “THERAPEUTIC COMBINATIONS COMPRISING UBIQUITIN- SPECIFIC-PROCESSING PROTEASE 1 (USP1) INHIBITORS AND CHEMOTHERAPY AGENTS” (KSQ Therapeutics, Inc., priority 2022, published 2025).

Several values for one entry are separate records, joined by “and”; a condition that tells them apart may be missing. Equal values may be shown once. Where only a bound is given, the exact number is not on record here.

One data set relates to HT1376. The data set can be described thus: Colony formation (CFU) assay, HT1376. Particulars: HT1376, bladder. In kind it is cell-based. The method, then:
(§1) In vitro experiments were conducted using the colony formation unit (CFU) assay on various cell lines. The CFU assay involved first establishing what cell plating density enabled the development of clearly interspersed colonies on a six-well plate when left to grow for around 14 days. […] At or around day 14 when clearly interspersed colonies were visible in the DMSO-treated wells, the cells were fixed and stained using 0.1% crystal violet in 10% ethanol for 20 minutes at room temperature. The plates were imaged then the amount of crystal violet stain in each well was quantified by extracting the crystal violet into 10% acetic acid and the absorbance measured at 565 nm.
(§2) For certain cell lines, multiple IC50 values were taken, and those are separated by commas. Synergy scores are in parentheticals.

The next data set concerns UBLC1. The data set can be described thus: Colony formation (CFU) assay, UBLC1. It counts as cell-based. The following applies: UBLC1, bladder. The method, then: as §1, §2
The next data set deals with UMUC3. The data set can be described thus: Colony formation (CFU) assay, UMUC3. It counts as cell-based. The following applies: UMUC3, bladder. The method, then: as §1, §2
The test system of another data set is NCIH1650. The data set can be described thus: Colony formation (CFU) assay, NCIH1650. It counts as cell-based. The following applies: NCIH1650, lung. The method, then:
as §1, §2

A further data set deals with A549. Nature of the data set: Colony formation (CFU) assay, A549. The following applies: A549, lung. It counts as cell-based. As to the method:
as §1, §2

The conditions of data set [1]: single dose in Balb/c nude mice; Aston W., et al., BMC Cancer 17:684 (2017); cited from earlier work.
The next data set concerns HBCx9. Nature of the data set: Colony formation (CFU) assay, HBCx9. In kind it is cell-based. The following applies: HBCx9, breast. The method, then:
as §1, §2

The next data set has as its system HCC1806. The data set can be described thus: Colony formation (CFU) assay, HCC1806. In kind it is cell-based. The following applies: HCC1806, breast; CFU ~14 days; wells with DMSO or 300 nM Compound 1; read-out: Chemotherapy nM IC50s (converted). The method, then:
as §1, §2

The test system of a further data set is various cell lines. Nature of the data set: Colony formation (CFU) assay, summary over cell lines of Table 1. In kind it is cell-based. Particulars: combination of USP1 inhibitor (Compound 1, 300 nM) and the chemotherapy agent. The method, then:
as §1
In certain cell lines, combinations of the disclosure are synergistic. In some aspects, these combinations are determined to have a Bliss score is about 6, about 7, about 8, about 9, about 10, about 11, about 12, about 13, about 14, about 15, about 16, about 17, about 18, about 19, about 20 or about 25.

The test system of another data set is SUM149PT. Nature of the data set: Colony formation (CFU) assay, SUM149PT. The following applies: breast. In kind it is cell-based. As to the method:
as §1, §2

The test system of another data set is 5637. The data set can be described thus: Colony formation (CFU) assay, 5637. It counts as cell-based. Particulars: 5637, bladder. As to the method: as §1, §2
The next data set has as its system U2OS. The data set can be described thus: Colony formation (CFU) assay, U2OS. It counts as cell-based. The following applies: bone. The method, then: as §1, §2
Data set [2] in a line: Maximum tolerated dose of Compound 1 cocrystal in combination with cisplatin, non-tumor bearing mice. The following applies: non-tumor bearing female Balb/c nude mice; Compound 1 oral gavage once daily 28 days + cisplatin i.v. once a week days 0, 7, 14, 21. As to the method:
The maximum tolerated dose (MTD) of the USP1 inhibitor Compound 1 cocrystal in combination with cisplatin was evaluated in non-tumor bearing Balb/c nude mice. 6-8 week old female Balb/c nude mice from Beijing Anikeeper Biotech Co. Ltd were randomized into groups of 5 for control, cisplatin (4 mg/kg) alone, cisplatin (5 mg/kg) alone, cisplatin (6 mg/kg) alone, Compound 1 (50 mg/kg) and cisplatin (4 mg/kg) combination group, Compound 1 (100 mg/kg) and cisplatin (4 mg/kg) combination group, Compound 1 (300 mg/kg) and cisplatin (4 mg/kg) combination group, Compound 1 (50 mg/kg) and cisplatin (5 mg/kg) combination group, Compound 1 (100 mg/kg) and cisplatin (5 mg/kg) combination group, Compound 1 (300 mg/kg) and cisplatin (5 mg/kg) combination group, Compound 1 (50 mg/kg) and cisplatin (6 mg/kg) combination group, Compound 1 (100 mg/kg) and cisplatin (6 mg/kg) combination group, and Compound 1 (300 mg/kg) and cisplatin (6 mg/kg) combination group. Mice were treated with the relevant dose of Compound 1 via oral gavage once daily for 28 days or relevant dose of cisplatin via intravenous injection once a week on days 0, 7, 14, and 21. […]
Body weights were measured daily. Tolerability was assessed by monitoring body weight and calculating body weight changes as % from body weight on day of treatment start (day 0), as shown in FIG. 1-3. […]

A further data set deals with KU1919. The data set can be described thus: Colony formation (CFU) assay, KU1919. It counts as cell-based. The following applies: KU1919, bladder. The method, then:
as §1, §2

Another data set deals with HBCx8. Nature of the data set: Colony formation (CFU) assay, HBCx8. It counts as cell-based. The following applies: HBCx8, breast. The method, then:
as §1, §2

A further data set concerns 647V. Nature of the data set: Colony formation (CFU) assay, 647V. It counts as cell-based. Particulars: bladder. The method, then: as §1, §2
Another data set deals with NCIH596. The data set can be described thus: Colony formation (CFU) assay, NCIH596. In kind it is cell-based. The following applies: NCIH596, lung. The method, then: as §1, §2
Another data set deals with HCT116. Nature of the data set: Colony formation (CFU) assay, HCT116. The following applies: HCT116, colon; CFU ~14 days; wells with DMSO or 300 nM Compound 1; read-out: Chemotherapy nM IC50s. It counts as cell-based. The method, then: as §1, §2
The test system of data set [3] is HBCx-11 patient-derived breast xenograft. The data set can be described thus: Anti-tumor activity, HBCx-11 patient-derived breast xenograft model. In kind it is in vivo, Athymic nude mice. Particulars: Compound 1 100 mg/kg p.o. once daily 28 days + cisplatin 3 mg/kg i.v. once weekly x4; HBCx-11 PDX, nude mice; FIG. 8A. As to the method:
Six to nine week old female Athymic nude mice from Envigo were anesthetized and a 20 mm^3 tumor fragment placed subcutaneously via incision in the flank. When tumors established to a tumor volume of between 75 and 196 mm^3 mice were randomized into groups of 3 and were assigned into the following groups: control, Compound 1 (100 mg/kg), cisplatin (3 mg/kg) or Compound 1 (100 mg/kg) and cisplatin (3 mg/kg) combination. Cisplatin was administered intravenously via tail vein once weekly for a total of 4 doses. Compound 1 was administered via oral gavage once daily for 28 days. Body weight and tumor volume were measured twice per week. Tumor volume was calculated as mean and standard error of the mean for each treatment group.

The test system of data set [4] is MDA-MB-436 cell line-derived breast xenograft. Nature of the data set: Anti-tumor activity, MDA-MB-436 cell line-derived breast xenograft model. The following applies: Compound 1 100 mg/kg p.o. once daily 28 days + cisplatin 2 mg/kg i.v. once weekly x4; MDA-MB-436, NOD SCID mice; FIG. 6A. It counts as in vivo. As to the method: Six to eight week old female NOD SCID mice from Beijing Anikeeper Biotech CO, Ltd were implanted subcutaneously with 1×10^7 MDA-MB-436 cells. When tumors established to a tumor volume of approximately 240 mm^3 mice were randomized into groups of 5 and were assigned into the following groups: control, cisplatin (2 mg/kg), Compound 1 (100 mg/kg) or Compound 1 (100 mg/kg) and cisplatin (2 mg/kg) combination. Cisplatin was administered intravenously via tail vein once weekly for a total of 4 doses. Compound 1 was administered via oral gavage once daily for 28 days. Body weight and tumor volume were measured twice per week. Tumor volume was calculated as mean and standard error of the mean for each treatment group.

Data set [5] deals with HBCx-8 patient-derived breast xenograft. Nature of the data set: Anti-tumor activity, HBCx-8 patient-derived breast xenograft model. It counts as in vivo, Athymic nude mice. Particulars: Compound 1 100 mg/kg p.o. once daily 42 days + cisplatin 5 mg/kg i.v. once weekly x3; HBCx-8 PDX, nude mice; FIG. 7A. The method, then: Six to nine week old female Athymic nude mice from Envigo were anesthetized and a 20 mm^3 tumor fragment placed subcutaneously via incision in the flank. […] Cisplatin was administered intravenously via tail vein once weekly for a total of 3 doses. Compound 1 was administered via oral gavage once daily for 42 days. Body weight and tumor volume were measured twice per week. Tumor volume was calculated as mean and standard error of the mean for each treatment group.

For a further data set, the system named is BECKER. Nature of the data set: Colony formation (CFU) assay, BECKER. In kind it is cell-based. Particulars: 336 h, CFU ~14 days, wells with DMSO or 300 nM Compound 1, read-out: Chemotherapy nM IC50s. The method, then:
as §1, §2

A further data set has as its system U251MG. Nature of the data set: Colony formation (CFU) assay, U251MG. It counts as cell-based. The following applies: Homo sapiens, U-251, 336 h, nervous system, CFU ~14 days, wells with DMSO or 300 nM Compound 1, read-out: Chemotherapy nM IC50s. As to the method: as §1, §2
The next data set deals with GOTO. The data set can be described thus: Colony formation (CFU) assay, GOTO. It counts as cell-based. The following applies: 336 h, nervous system, CFU ~14 days, wells with DMSO or 300 nM Compound 1, read-out: Chemotherapy nM IC50s. The method, then: as §1, §2
Where [6] appears, read: CFU ~14 days, wells with DMSO or 300 nM Compound 1, read-out: Chemotherapy nM IC50s.
[7] abbreviates: chemotherapy agent in combination with 300 nM Compound 1.

Regarding `N.N.[Cl][Pt][Cl]` [Cis., cisplatin], the IC50 with HT1376 (setting [6]) was 734 nM; with UBLC1 (setting [6]), 308 nM; in the data set on UMUC3 (setting [6]), 212 nM; in the data set with NCIH1650 (setting [6]), above 1000 nM; in the data set with A549 (setting [6]), above 316 nM; in the data set on HBCx9 (setting [6]), 473 nM. The IC50 in the data set on HCC1806 was 97 nM and 130 nM; in the data set on SUM149PT (setting [6]), above 316 nM; in the data set with 5637 (setting [6]), 598 nM; in the data set with U2OS (setting [6]), above 316 nM; in the data set with KU1919 (setting [6]), 894 nM; with HBCx8 (setting [6]) it was 142 nM. Besides, the IC50 in the data set on 647V (setting [6]) is 1780 nM; in the data set on NCIH596 (setting [6]), 129 nM; in the data set with HCT116 it was 1260 nM and 895 nM. Further, the synergy score entry with HT1376 (setting [7]) is given as “(10)”; in the data set with UBLC1 (setting [7]) it was “(−2)”; in the data set on UMUC3 (setting [7]) it was “(1)”; in the data set with NCIH1650 (setting [7]), “(−1)”; in the data set on A549 (setting [7]), “(11)”; in the data set on HBCx9 (setting [7]), “(−1)”. Further, the synergy score result with SUM149PT (setting [7]) is on record as “(10)”; in the data set with 5637 (setting [7]), “(12)”; with U2OS (setting [7]) it was “(3)”; in the data set with KU1919 (setting [7]) it was “(1)”; with HBCx8 (setting [7]) it was “(1)”; in the data set on 647V (setting [7]), 0. In addition, the synergy score result with NCIH596 (setting [7]) is given as “(0)”. Besides, in data set [1], the “reported MTD” value is listed as 6 mg/kg. For the same compound, the “synergy of combination with USP1 inhibitor” value in the data set on various cell lines is given as “synergy was detected”. Moreover, the “combination MTD” value in data set [2] stood at 6 mg/kg.

As for `COc1ncnc(C2CC2)c1-c1ncc2cnn(Cc3ccc(-c4nc(C(F)(F)F)cn4C(C)C)cc3)c2n1` [Compound 1, 6-(4-cyclopropyl-6-methoxypyrimidin-5-yl)-1-(4-(1-isopropyl-4-(trifluoromethyl)-1H-imidazol-2-yl)benzyl)-1H-pyrazolo[3,4-d]pyrimidine], the “anti-tumor activity (tumor volume) of combination versus single agents” value in data set [3] was “superior and more prolonged anti-tumor activity”; in data set [4], “more prolonged anti-tumor activity”; in [5], “more prolonged anti-tumor activity”.

As for `Cn1nnc2c(C(N)=O)ncn2c1=O` [Temozol., Temozolomide], the IC50 in the data set on BECKER, with U251MG and in the data set with GOTO was below 1 nM each time.
